Test results from patent publication US5338858A, “Triazolyl, tetrazolyl and azido-substituted fatty acid analog enzyme substrates” (Washington University, priority 1992, dated 1994).
≈ marks a conversion by molar mass, not a printed value. Where two headings read alike, the source gives them in different places.

Columns and labels:
HIV-1 [1] = assay: HIV inhibition assay of acutely infected CEM cells (MTT tetrazolium colorimetric, reduction of CPE); format: cell-based; details: for IC50 / inhibition at 1 µg/mL / inhibition at 10 µg/mL: Human immunodeficiency virus 1, CCRF-CEM, 168 h; for IC50: read-out: ID50 (inhibitory dose that inhibits 50% of the cytopathic effect); for inhibition at 1 µg/mL / inhibition at 10 µg/mL: read-out: Percent Reduction of CPE
Description: B. Representative compounds prepared in the foregoing illustrative specific examples were also tested in vitro for the assessment of anti-viral (HIV) activity as follows:
The HIV inhibition assay method of acutely infected cells is an automated tetrazolium based colorimetric assay adatped from that reported by Pauwles et al., J. Virol. Methods, 20, 309-321 (1988). Assays were performed in 96-well tissue culture plates. CEM cells were grown in RPMI-1640 medium (Gibco) supplemented with 10% fetal calf serum and were then treated with polybrene (2 μg/ml). An 80 μl volume of medium containing 1×10^4 cells was dispensed into each well of the tissue culture plate. To each well was added a 100 μl volume of test compound dissolved in tissue culture medium (or medium without test compound as a control) to achieve the desired final concentration and the cells were incubated at 37° C. for 1 hour. A frozen culture of HIV-1 was diluted in culture medium to a concentration of 5×10^4 TCID50 per ml (TCID50 =the dose of virus that infects 50% of cells in tissue culture), and a 20 μl volume of the virus sample (containing 1000 TCID50 of virus) was added to wells containing test compound and to wells containing only medium (infected control cells). […] Several wells received culture medium without virus (uninfected control cells). Likewise, the intrinsic toxicity of the test compound was determined by adding medium without virus to several wells containing test compound. In summary, the tissue culture plates contained the following tests (in triplicate):
In tests 2 and 4 the final concentrations of test compounds were 1, 10, 100 and 500 μg/ml. Azidothymidine (AZT) was tested as a positive drug control, and dodecanoic acid was tested as a negative fatty acid control. […] Under these conditions, DMSO had no significant effect on results as determined in controls.
Following the addition of virus, cells were incubated at 37° C. in a humidified, 5% CO2 atmosphere for 7 days. Additional aliquots of test compounds were added on days 2 and 5. On day 7 post-infection, the cells in each well were resuspended and a 100 μl sample of each cell suspension was removed for assay. A 20 μl volume of a 5 mg/ml solution of 3-(4,5-dimethylthiazol-2-yl)-2,5-diphenyltetrazolium bromide (MTT) was added to each 100 μl cell suspension, and the cells were incubated for 4 hours at 37° C. in a 5% CO2 environment. […] To each sample was added 100 μl of 10% sodium dodecylsulfate in 0.01 N HCl to lyse the cells and samples were incubated overnight. The absorbance of each sample was determined.at 590 nm using a Molecular Devices microplate reader. The % reduction of the virus induced cytopathic effect (CPE) by the test compounds was determined using the formula shown at the bottom of Table 2, hereinafter.
The results of the antiviral testing are set forth in Table 2, as percent reduction in cytopathic effect (CPE). The inhibitory dose that inhibits 50% of the cytopathic effect is shown as ID50 (μg/ml).
^a The percent reduction of viral CPE was calculated by the formula: […]

[2] = target: T1, yeast N-myristoyltransferase (Saccharomyces cerevisiae, UniProt P14743); assay: in vitro yeast N-myristoyltransferase (NMT) assay, substrate activity of fatty acyl CoA derivatives; format: biochemical; details: peptide GSAASARR-NH2, 30° C., 10 minutes; normalized to myristoyl peptide of parallel assay
T1 sequence (P14743 1-455): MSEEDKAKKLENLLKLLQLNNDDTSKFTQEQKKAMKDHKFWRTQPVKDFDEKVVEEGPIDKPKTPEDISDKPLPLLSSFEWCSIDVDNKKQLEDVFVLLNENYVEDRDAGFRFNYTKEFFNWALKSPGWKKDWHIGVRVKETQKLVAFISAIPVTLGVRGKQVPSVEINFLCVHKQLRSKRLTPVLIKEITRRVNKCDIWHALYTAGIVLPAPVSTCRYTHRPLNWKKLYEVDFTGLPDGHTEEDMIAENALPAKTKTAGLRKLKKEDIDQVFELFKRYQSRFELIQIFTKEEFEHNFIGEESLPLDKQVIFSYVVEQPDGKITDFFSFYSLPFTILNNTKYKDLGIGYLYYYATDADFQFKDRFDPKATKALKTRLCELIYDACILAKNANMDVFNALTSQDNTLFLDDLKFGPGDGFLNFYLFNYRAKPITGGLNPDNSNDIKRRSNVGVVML
Description: A. Representative compounds prepared in the foregoing illustrative specific examples were analyzed in a conventional in vitro yeast N-myristoyltransferase (NMT) assay as published by Heuckeroth et al., Proc. Nat'l Acad. Sci. USA 85, 8795-8799 (1988). In this assay, the test compounds were first converted to their respective fatty acyl CoA derivatives and then tested as substrates for the yeast NMT.
The assay conditions [essentially the same as those reported by Towler and Glaser, Proc. Natl. Acad. Sci. USA 83, 2812-2816 (1986)] were as follows:
1. Ligase reaction: 3.3 μmoles fatty acid, 5 mM ATP and 1 mM CoA were incubated with 15-150 milliunits of CoA ligase (1 unit/ml in 50 mM HEPES, pH 7.3) in a buffer composed of 10 mM TRIS-HCl, pH 7.4, 1 mM dithiothreitol, 5 mM MgCl2 and 0.1 mM EGTA, in a total volume of 50 μl for 25 minutes at 30° C.
2. NMT assay: 50 μl of the CoA ligase mixture was added to a 50 μl solution of 90 μM peptide (GSAASARR-NH2) in a buffer composed of 10 mM TRIS-HCl, pH 7.4, 1 mM dithiothreitol, 0.01 mM EGTA and aprotinin (10 μg/ml). 0.4 Unit of yeast N-myristoyltransferase was then added and the reaction mixture was incubated at 30° C. for 10 minutes. The peptide was radiolabeled with tritiated alanine in position 3. The reaction was quenched with 120 μl of TCA-MeOH and 75 μl was injected on a reverse phase C18 HPLC column and eluted with a linear gradient of 0-100% acetonitrile over 100 minutes (both water and acetonitrile containing 0.1% trifluoroacetic acid). Radioactivity was assessed with an on line radiomatic detector corrected for quenching.
The amount of radioactivity was determined for each azido-substituted fatty acyl peptide product and then was normalized to the amount of myristoyl peptide produced in an assay run in parallel.

HIV-1 [3] = assay: HIV inhibition assay of acutely infected CEM cells (MTT tetrazolium colorimetric, reduction of CPE); format: cell-based; details: Human immunodeficiency virus 1, CCRF-CEM, 168 h, read-out: Percent Reduction of CPE
[4] = concentration 1 (μg/ml), CEM cells, HIV-1, 7 days
[5] = concentration 10 (μg/ml), CEM cells, HIV-1, 7 days

Compound	IC50 (HIV-1 [1]; CEM cells, HIV-1, 7 days) [mg/L]	inhibition at 1 µg/mL (HIV-1 [1]; [4]) [%]	inhibition at 10 µg/mL (HIV-1 [1]; [5]) [%]	Activity (% of Myristate) [2]	ID50 (inhibitory dose that inhibits 50% of the cytopathic effect) (HIV-1 [1]; CEM cells, HIV-1, 7 days)	further results
[N-]=[N+]=NCCCOCCCCCCCC(=O)O [Compound 41, 8-(1-Azido-propane-3-oxa)octanoic acid]	5 (≈ 20.6 µM)	14	66	421 % of Myristate	–	–
O=C(O)CCCCCCCCCCCn1cncn1 [Compound 48]	4.2 (≈ 15.7 µM)	24	66	23 % of Myristate	–	–
Cc1cn([C@H]2C[C@H](N=[N+]=[N-])[C@@H](CO)O2)c(=O)[nH]c1=O [AZT, Azidothymidine]	< 0.001	–	–	–	–	inhibition at 0.5 µg/mL (HIV-1 [3]): 87.8%; inhibition at 0.001 µg/mL (HIV-1 [3]; 0.001 μg/ml, CEM cells, HIV-1, 7 days): 58.2%; inhibition at 0.01 µg/mL (HIV-1 [3]; 0.01 μg/ml, CEM cells, HIV-1, 7 days): 84.8%; inhibition at 0.1 µg/mL (HIV-1 [3]; 0.1 μg/ml, CEM cells, HIV-1, 7 days): 101%
[N-]=[N+]=NCCCCCCCCSCCC(=O)O [Compound 23, 4-(1-Azido-octane-6-thia)propionic acid]	–	–	–	373 % of Myristate	Inactive	inhibition at 1 µg/mL (HIV-1 [1]): 0%; inhibition at 10 µg/mL (HIV-1 [1]): 0%
[N-]=[N+]=NCCOCCCCCCCCC(=O)O [Compound 40, 9-(1-Azido-ethane-2-oxa)nonanoic acid]	–	–	–	280 % of Myristate	–	–
[N-]=[N+]=NCCCCCCCCCCCC(=O)O [Compound 1, 12-Azidododecanoic acid]	0.3 (≈ 1.24 µM)	81.7	38.2	142 % of Myristate	–	–
[N-]=[N+]=NCCCCCCOCCCCC(=O)O [Compound 42, 5-(1-Azido-hexane-6-oxa)pentanoic acid]	–	4	20	622 % of Myristate	Inactive	–
[N-]=[N+]=NCCCCCCCCC(=O)O [Compound 3, 9-Azidononanoic acid]	–	–	–	55 % of Myristate	–	–
[N-]=[N+]=NCCCCCCSCCCCC(=O)O [Compound 13, 5-(1-Azido-hexane-6-thia)pentanoic acid]	–	0	14	103 % of Myristate	Inactive	–
CCCCCCCCCC(=O)O [Decanoic acid, reference compound]	–	–	–	–	–	inhibition at 1 µg/mL (HIV-1 [1]): 7.7%; inhibition at 10 µg/mL (HIV-1 [1]): 11.3%
12-(Tetrazolyl)dodecanoic acid [Compound 46]	–	–	–	46 % of Myristate	5.9 mg/L	Percent Reduction of CPE (HIV-1 [1]; [4]): 12%; Percent Reduction of CPE (HIV-1 [1]; [5]): 65%
[N-]=[N+]=NCCCCCCCCCOCC(=O)O [Compound 43, 2-(1-Azido-nonane-9-oxa)acetic acid]	–	–	–	11 % of Myristate	Inactive	–
[N-]=[N+]=NCCCCCCCCCCC(=O)O [Compound 2, 11-Azidoundecanoic acid]	–	16.3	34.6	100 % of Myristate	–	–
COCCCCCCCCCCCC(=O)O [13-Oxamyristate, reference compound]	0.3 (≈ 1.3 µM)	66.4	43.5	–	–	–
[N-]=[N+]=NCCCCCCCCCSCC(=O)O [Compound 19, 2-(1-Azido-nonane-9-thia)acetic acid]	9.2 (≈ 35.5 µM)	1	54	17 % of Myristate	–	–
O=C(O)CCCCCCCCCCCn1nccn1 [Compound 50, 12-(N-2-[1,2,3]-Triazolyl)dodecanoic acid]	–	19.5	30.8	99 % of Myristate	–	–
